According to patent US8663607B2, “Ferrate(VI)-containing compositions and methods of using ferrate(VI)” (Battelle Memorial Institute, priority 2007, dated 2014):

Test: Stain removal from calcium deficient hydroxyapatite disks (human tooth model), tea stain
Method: Tea staining Solution: 200 mL of high-purity deionized (HPDI) water was heated to boiling in a 500-mL beaker. The beaker was removed from heat and 4 Lipton™ tea bags were added. The tea bags were allowed to soak for 5 minutes. The tea bags were pressed with a spatμLa upon removal to remove liquid.
Tea staining Procedure: A calcium-deficient hydroxyapatite (HAP) disk (Clarkson Chromatography Products) was placed into a 50-mL centrifuge tube with 10 mL of tea solution. The centrifuge tube was gently shaken by hand for 15 minutes. The tea solution was decanted and replaced with 10 mL of HPDI water and vortexed for 30 seconds. The water was decanted and replaced with 10 additional mL of HPDI water and vortexed for 30 seconds. The disk was removed with forceps and patted dry with a tissue. The disk was allowed to air dry at room temperature for at least one hour.
Oxidation resistant chelating buffer: 0.25M 1-Hydroxyethylidenediphosphonic acid (etridonic acid) (Dequest® 2010, Thermphos) (HEPA) was pH adjusted by microtitration with 10N NaOH. 1.28 g of 1-Hydroxyethylidenediphosphonic acid was to a 25-mL volumetric flask and brought to volume with HPDI water. The solution was transferred to a 50-mL beaker with a stir bar and pH adjusted using 10.04N NaOH, monitored with a calibrated pH meter. Aliquat 336® (Cognis) (also suitable is Aliquat 134®) (N-methyl-tri-(n-octyl)ammonium chloride), (N-methyl TOA) or “HEPA” chelating pH Buffer: 2.5-μL of N-methyl TOA was added to 5 mL of pH 7 HEPA buffer and sonicated for 1 minute. pH 7 Sodium Dodecyl Sulfate (SDS)/HEPA Buffer: 10 mg of SDS was added to 5 mL of pH 7 HEPA buffer and sonicated for 1 minute. pH 8 SDS/HEPA Buffer: 10 mg of SDS was added to 5 mL of pH 8 HEPA buffer and sonicated for 1 minute.
• A. A tea stained disk was placed into the bowl of the bowl of a watch glass and 100 μL of pH 7 HEPA buffer was pipetted onto the disk surface. 3.7 mg of potassium ferrate(VI) was added to the disk surface and mixed gently. […] The disk was rinsed at 10 minutes with HPDI water. […] 1 mL of pH 7 HEPA buffer was added followed by 9 mL of HPDI water. 9.7 mg of potassium ferrate(VI) was added. The tube was gently hand shaken for 10 minutes. The disk was removed and rinsed with HPDI water. […] 10 mg of potassium ferrate(VI) was added to 1 mL of pH 7 HEPA buffer in a 50 mL centrifuge tube. 9 mL HPDI water was added, and the solution was shaken for a few seconds followed by the addition of a tea stained HAP disk. The disk was removed at 10 minutes and rinsed with HPDI water. […] 1.3 mg of potassium ferrate(VI) added and mixed into the solution.

[1] = disk A-2: 30 mg calcium carbonate + 250 μL HPDI water, 10 mg, no chelating buffer, rinsed at 5 minutes
[2] = disk A: 100 μL pH 7 HEPA buffer, 3.7 mg added to disk surface, rinsed at 10 minutes
[3] = disk B-1: 10 mg calcium carbonate + 12 mg in 2 mL pH 8 SDS/HEPA buffer, 5 minutes, then 1 mL buffer 45 minutes
[4] = disk B: 1 mL pH 7 HEPA buffer + 9 mL water, 9.7 mg, shaken 10 minutes
[5] = disk E: 100 μL pH 7 HEPA buffer, 1.4 mg, 5 minutes, then 100 μL pH 7 HEPA buffer 5 minutes
[6] = disk F: 100 μL pH 7 HEPA buffer + one drop of N-methyl TOA (emulsion), 1 mg
[7] = disk G: 100 μL N-methyl TOA/HEPA buffer, 0.7 mg, rinsed at 5 minutes, then 100 μL buffer 5 minutes
[8] = disk H: 100 μL N-methyl TOA/HEPA buffer, 1.3 mg, 5 minutes, then 2 x 100 μL buffer 5 minutes each
[9] = disk I: 100 μL N-methyl TOA/HEPA buffer, 1.3 mg (uneven distribution), 5 minutes, then 200 μL buffer
[10] = disk J: 200 μL N-methyl TOA/HEPA buffer, 2.3 mg, 5 minutes, then 200 μL buffer 5 minutes
[11] = disk K: 9.9 mg premixed in 1 mL N-methyl TOA/HEPA buffer, disk fully covered 10 minutes, then 400 μL buffer 45 minutes
[12] = disk L: 100 μL pH 7 SDS/HEPA buffer, 1.3 mg, 10 minutes, then 100 μL buffer ten minutes
[13] = disk M: 1 mL of 29.3 mg in 3 mL pH 7 SDS/HEPA buffer, 3 minutes, then buffer soaks 8 and 35 minutes, extra rinse
[14] = disk N: 1 mL of 29.3 mg in 3 mL pH 7 SDS/HEPA buffer, 3 minutes, then buffer soaks 8 and 35 minutes, extra rinse
[15] = disk P: overnight tea stain, 0.75 mL of 25 mg in 1.5 mL pH 8 SDS/HEPA buffer, 5 minutes, then 1 mL buffer 45 minutes, rinsed again after drying one hour
[16] = disk Q: overnight tea stain, 0.75 mL of 25 mg in 1.5 mL pH 8 SDS/HEPA buffer, 5 minutes, then 1 mL buffer 45 minutes
[17] = disk S: tea stained disk treated the same way as P and Q (replicate)
[18] = disk U: treated the same way as P and Q, then submerged in HPDI water 45 minutes instead of drying

## potassium ferrate(VI)
[1]
  L* (lightness/darkness): 69.5
  a* (blue/red): 14.4
  appearance of disk after treatment: the color was not removed
  b* (yellow/green): 26
  reflectance of visible light at 450 nm: 22.036
  reflectance of visible light at 750 nm: 64.152
  ΔE (versus tea stain): 29.21
[2]
  L* (lightness/darkness): 72
  a* (blue/red): 2.6
  appearance of disk after treatment: stained purple with rust stains
  b* (yellow/green): −1.1
  reflectance of visible light at 450 nm: 44.547
  reflectance of visible light at 750 nm: 61.521
  ΔE (versus tea stain): 13.57
[3]
  L* (lightness/darkness): 100.8
  a* (blue/red): 0.5
  appearance of disk after treatment: All stains were removed
  b* (yellow/green): 0.1
  reflectance of visible light at 450 nm: 100.124
  reflectance of visible light at 750 nm: 103.677
  ΔE (versus B-2, tea stained): 15.29
[4]
  L* (lightness/darkness): 79.1
  a* (blue/red): 1.6
  appearance of disk after treatment: stained purple with rust stains
  b* (yellow/green): −2
  reflectance of visible light at 450 nm: 57.457
  reflectance of visible light at 750 nm: 69.889
  ΔE (versus tea stain): 8.29
Disk C: 10 mg premixed in 1 mL pH 7 HEPA buffer + 9 mL water, disk removed at 10 minutes
  appearance of disk after treatment: stained purple
[5]
  L* (lightness/darkness): 90.1
  a* (blue/red): 1.3
  appearance of disk after treatment: lighter purple than previous examples
  b* (yellow/green): −2.2
  reflectance of visible light at 450 nm: 77.562
  reflectance of visible light at 750 nm: 87.011
  ΔE (versus unstained disk): 4.24
[6]
  L* (lightness/darkness): 77
  a* (blue/red): 2.1
  appearance of disk after treatment: purple with streaks where mixing occurred
  b* (yellow/green): 0.7
  reflectance of visible light at 450 nm: 44.547
  reflectance of visible light at 750 nm: 68.873
  ΔE (versus tea stain): 8.65
[7]
  L* (lightness/darkness): 94
  a* (blue/red): 0.6
  appearance of disk after treatment: purple color was removed but brown staining observed
  b* (yellow/green): −0.1
  reflectance of visible light at 450 nm: 82.923
  reflectance of visible light at 750 nm: 92.128
  ΔE (versus tea stain): 10.88
[8]
  L* (lightness/darkness): 93.6
  a* (blue/red): 1.3
  appearance of disk after treatment: light brown color
  b* (yellow/green): 0.6
  reflectance of visible light at 450 nm: 82.479
  reflectance of visible light at 750 nm: 93.202
  ΔE (versus tea stain): 10.06
[9]
  L* (lightness/darkness): 91.2
  a* (blue/red): −0.8
  appearance of disk after treatment: More decoloring was observed at the center
  b* (yellow/green): −4.7
  reflectance of visible light at 450 nm: 83.889
  reflectance of visible light at 750 nm: 83.121
  ΔE (versus tea stain): 11.69
[10]
  L* (lightness/darkness): 87.5
  a* (blue/red): −0.1
  appearance of disk after treatment: Rust spots observed
  b* (yellow/green): −3.9
  reflectance of visible light at 450 nm: 44.547
  reflectance of visible light at 750 nm: 78.071
  ΔE (versus tea stain): 9.10
[11]
  L* (lightness/darkness): 100.8
  a* (blue/red): −0.3
  appearance of disk after treatment: Significant color removal was observed
  b* (yellow/green): −2.1
  reflectance of visible light at 450 nm: 102.827
  reflectance of visible light at 750 nm: 103.311
  ΔE (versus tea stain): 17.77
[12]
  L* (lightness/darkness): 99.1
  a* (blue/red): −0.4
  appearance of disk after treatment: Most of the color was removed from the center of the disk
  b* (yellow/green): −2.2
  reflectance of visible light at 450 nm: 99.384
  reflectance of visible light at 750 nm: 98.847
  ΔE (versus tea stain): 16.32
[13]
  L* (lightness/darkness): 100.1
  a* (blue/red): 0
  b* (yellow/green): −1.9
  reflectance of visible light at 450 nm: 100.820
  reflectance of visible light at 750 nm: 102.480
  ΔE (versus disk 0): 12.15
[14]
  L* (lightness/darkness): 100.6
  a* (blue/red): −0.3
  b* (yellow/green): −1.4
  reflectance of visible light at 450 nm: 101.538
  reflectance of visible light at 750 nm: 101.930
  ΔE (versus disk O): 12.63
[15]
  L* (lightness/darkness): 103.5
  a* (blue/red): −2.1
  b* (yellow/green): −3.2
  reflectance of visible light at 450 nm: 111.059
  reflectance of visible light at 750 nm: 103.081
  ΔE (versus disk R): 25.40
[16]
  L* (lightness/darkness): 101.8
  a* (blue/red): −1.2
  b* (yellow/green): −0.7
  reflectance of visible light at 450 nm: 103.784
  reflectance of visible light at 750 nm: 101.164
  ΔE (versus disk R): 22.83
[17]
  L* (lightness/darkness): 99.3
  a* (blue/red): 0
  reflectance of visible light at 450 nm: 98.555
  reflectance of visible light at 750 nm: 98.659
[18]
  L* (lightness/darkness): 96.9
  a* (blue/red): 0.4
  appearance of disk after treatment: Color was removed as effectively as with a dried sample
  b* (yellow/green): 0.3
  reflectance of visible light at 450 nm: 89.892
  reflectance of visible light at 750 nm: 94.030
  ΔE (versus tea stain): 13.44
